Data set [1] deals with peripheral blood lymphocytes stimulated by PHA. Nature of the data set: PHA stimulation assay, [3H]TdR incorporation. The following applies: Reverse Prenyl Compounds, read-out: IC50 PHA Assays. The format is cell-based, human. As for the experimental part:
(§1) Fresh peripheral blood lymphocytes isolated by Ficoll-Hypaque density centrifugation are stimulated by PHA or the OKT3 antibody (anti-CD3), which stimulates via interaction with CD3. Stimulation is measured by incorporation of radioactive thymidine [(^3H)TdR] into proliferating cells, with an unhibited control signal of 48,000-75,000 cpm. IC50 values are estimated from inhibitions of proliferation observed at various drug concentrations.

In data set [2] the test system is heterotopic cardiac transplants. The data set is described as follows: Heterotopic mouse cardiac transplants (prospective example). It is filed as in vivo, mice. Conditions: 40 mg/kg-1 mg/25 g per day, i.v., 7 or 14 days, Alzet pump. As for the experimental part:
5-N-Acetylardeemin and 5-N-acetyl-8-desmethylardeemin are individually administered to mice which have received heterotopic cardiac transplants at a range of concentrations (40 mg/kg-1 mg/25 g per day), i.v., for seven days or fourteen days using an Alzet pump. Each compound is dissolved in DMSO at high concentration prior to administration. Control animals receive the same volume of carrier solvent (40 μL DMSO).

In data set [3] the test system is peripheral blood lymphocytes stimulated by OKT3 antibody (anti-CD3). Nature of the data set: OKT3 stimulation assay, [3H]TdR incorporation. The following applies: Reverse Prenyl Compounds, read-out: IC50 OKT3 Assays. It is filed as cell-based, human. As for the experimental part:
as §1

The subject of data set [4] is Human Peripheral Blood Lymphocytes. Nature of the data set: Thymidine incorporation assay: activation of human peripheral blood lymphocytes by phytohemagglutinin. The format is cell-based. The following applies: drug 30 min, then 10 μg/ml PHA 24 hrs, [3H]Thd incorporation. As for the experimental part: Inhibitory Effects of Ardeemin Compounds on the Activation of Human Peripheral Blood Lymphocytes by Phytohemagglutinin
Thymidine Incorporation Assay:
PBL were exposed to various concentrations of drugs for 30 min and then added 10 μg/ml PHA for 24 hrs. [^3H]Thd (1 μCi/well) was then added and incubated for 1 hr. The reaction is stopped by adding 10% TCA for analysis of [^3H]Tdk incorporation into DNA.

The subject of data set [5] is inflammation induced by carrageene. Nature of the data set: Inflammation induced by carrageene in mice pedis. The format is in vivo. As to the method:
FIG. 3 illustrates the delayed treatment of inflammation induced by carrageene with aspirin, N-acetylardeemin and hydrocortisone. (●) Control; (▪) Aspirin (500 mg/kg, p.o.); (Δ) N-acetylardeemin (100 mg/kg, i.p.); (x) Hydrocortisone cream.
FIG. 4 illustrates the treatment of inflammation induced by carrageene with aspirin, N-acetylardeemin and hydrocortisone. (●) Control; (▪) Aspirin (500 mg/kg, p.o.); (Δ) N-acetylardeemin (100 mg/kg, i.p.); (x) Hydrocortisone cream.

A further data set relates to B6D2F1 mice. Nature of the data set: Cumulative toxicity in B6D2F1 mice. As to the method: FIG. 2 illustrates the cumulative toxicity in B6D2F1 mice treated with multidrug resistance reversal agents (mg/kg,i.p.,QD). Each group consists of five mice. […] Cumulated doses in the series shown in panels A, B and C were 712.5, 1700 and 3950 mg/kg×day, respectively.
In another data set the test system is P388/0 Tumors. The format is in vivo. Also noted: SURVIVAL TIME of individual mice (No. 1-6): unit: days. As for the experimental part:
Survival times were determined for B6D2F1 mice inoculated with P388/0 cells, 10^6 cells/mouse, i.p. at Day 0. The mice were treated by adriamycin and 5-N-acetylardeemin, i.p., daily for four days. Survival times were recorded based on the time of death with the following scheme of decimal values: 8AM (0.0), 1PM (0.25), 5PM (0.5). An in vivo immunosuppressive effect of the ardeemin derivatives is found which persistently […] the lifespan of P388 tumor-bearing B6D2F1 mice in a dose-dependent manner.

The test system of data set [6] is inflammation induced by carrageene. Nature of the data set: Inflammation induced by carrageene in mice pedis. It is filed as in vivo. The source holds these as a separate data set.
For data set [7], the system named is peripheral blood lymphocytes stimulated by PHA. Conditions: Classical immunosuppressant (historical data); read-out: IC50 PHA Assays; cited from earlier work.
Data set [8] relates to peripheral blood lymphocytes stimulated by OKT3 antibody (anti-CD3). Conditions: Classical immunosuppressant (historical data); read-out: IC50 OKT3 Assays; cited from earlier work.
[9] abbreviates: 5NAcArd 3.33 mg/kg i.p. daily Day 1-4.
[10] abbreviates: 5NAcArd 10 mg/kg i.p. daily Day 1-4.
[11] abbreviates: 5NAcArd 30 mg/kg i.p. daily Day 1-4.
[12] abbreviates: Adr 0.333 mg/kg i.p. daily Day 1-4.
Setting [13] is: Adr 1.0 mg/kg i.p. daily Day 1-4.
The mark [14] stands for this setting: Adr 3.0 mg/kg i.p. daily Day 1-4.

“And” between values parts separate entries of the source, which are not always exact repeats. Equal values may be shown once. Read-outs that look alike come from different tables or passages of the source. Marks after values point to notes of the source that are not given here.

The IC50 is the midpoint of a concentration-inhibition curve. As to `C=CC(C)(C)[C@@]12C[C@H]3c4nc5ccccc5c(=O)n4[C@H](C)C(=O)N3[C@@H]1N(C(C)=O)c1ccccc12` [5-N-acetylardeemin], the IC50 in [1] amounted to 7.96 µM. Also, in data set [2], the “resistance of organ transplant to graft rejection vs control mice” value is recorded as “more resistant to graft rejection”. In addition, the 50% inhibitory concentration (IC50) in data set [3] stood at 31.9 µM. Further, the IC50 in data set [4] came to 1910 nM. Moreover, in data set [5] (100 mg/kg i.p.), the “Average Pedis Area, Hours: 0” value stood at 7.1 mm^2; the “Average Pedis Area, Hours: 60” value was 10.2*** mm^2; the “Toxicity Death” value was 0/5. In addition, the toxicity to mice entry in the data set with B6D2F1 mice (FIG. 2, i.p., QD) is recorded as “relatively nontoxic”. In the data set on P388/0 Tumors (setting [9]), the “% ILS (% increase in lifespan)” value was −2%, the “AWC D 4” value was “+0.9 Gm”, the “AWC D 6” value is listed as “+3.3 Gm” and the “MST (mean survival time)” value is on record as 7.25. Further, in the data set on P388/0 Tumors (setting [9]), the “SURVIVAL TIME of individual mice (No. 1-6)” value (shortened to “SURVIVAL TIME … (No. 1-6)”) is 8.0 (2×) and 6.0 and 7.0. For the same molecule, in the data set with P388/0 Tumors (setting [10]), the “% ILS (% increase in lifespan)” value is given as −10%, the “AWC D 4” value is “+1.7 Gm”, the “AWC D 6” value is on record as “+4.8 Gm” and the “MST (mean survival time)” value was determined as 6.67. Also, in the data set with P388/0 Tumors (setting [10]), the “SURVIVAL TIME … (No. 1-6)” value was 7.5 and 6.0 and 6.5. Further, in the data set on P388/0 Tumors (setting [11]), the “% ILS (% increase in lifespan)” value is −16%, the “AWC D 4” value is given as “+1.6 Gm”, the “AWC D 6” value is “+3.8 Gm” and the “MST (mean survival time)” value was determined as 6.25. The “SURVIVAL TIME … (No. 1-6)” value in the data set with P388/0 Tumors (setting [11]) was 6.0 and 6.5. In [6] (50 mg/kg i.p.), the “Average Pedis Area, Hours: 0” value is reported as 6.8 mm^2; the “Average Pedis Area, Hours: 12” value was determined as 12.4 mm^2; the “Average Pedis Area, Hours: 24” value was found to be 12.7 mm^2; the “Average Pedis Area, Hours: 48” value is 11.3* mm^2. Moreover, in data set [6] (50 mg/kg i.p.), the “Average Pedis Area, Hours: 60” value is 15.6 mm^2 and the “Toxicity Death” value is 0/5. Moreover, in data set [6] (100 mg/kg i.p.), the “Average Pedis Area, Hours: 12” value is recorded as 9.7*** mm^2; the “Average Pedis Area, Hours: 24” value is given as 9.0*** mm^2; the “Average Pedis Area, Hours: 48” value is listed as 8.6*** mm^2.
With `CC(=O)Oc1ccccc1C(=O)O` [Aspirin], the “Average Pedis Area, Hours: 0” value in data set [5] (500 mg/kg p.o.) is given as 6.8 mm^2. Moreover, in data set [6] (250 mg/kg p.o.), the “Average Pedis Area, Hours: 0” value is listed as 6.9 mm^2; the “Average Pedis Area, Hours: 12” value came to 12.5 mm^2; the “Average Pedis Area, Hours: 24” value came to 12.3 mm^2; the “Average Pedis Area, Hours: 48” value is 13.2 mm^2. In [6] (250 mg/kg p.o.), the “Average Pedis Area, Hours: 60” value is listed as 15.4** mm^2 and the “Toxicity Death” value is recorded as 0/5. In addition, in data set [6] (500 mg/kg p.o.), the “Average Pedis Area, Hours: 12” value is 9.9** mm^2; the “Average Pedis Area, Hours: 24” value is 10.6** mm^2; the “Average Pedis Area, Hours: 48” value is 9.0*** mm^2; the “Average Pedis Area, Hours: 60” value is listed as 10.0*** mm^2. In addition, in [6] (500 mg/kg p.o.), the “Toxicity Death” value was 0/5. In [6] (1000 mg/kg p.o.), the “Average Pedis Area, Hours: 0” value is on record as 6.5 mm^2; the “Average Pedis Area, Hours: 12” value is recorded as 8.8*** mm^2; the “Toxicity Death” value was 5/6.
As for `COc1cccc2c1C(=O)c1c(O)c3c(c(O)c1C2=O)C[C@@](O)(C(=O)CO)C[C@@H]3O[C@H]1C[C@H](N)[C@H](O)[C@H](C)O1` [Adr, adriamycin, reference compound], the entries for the “% ILS (% increase in lifespan)” value in the data set with P388/0 Tumors (setting [12]), with P388/0 Tumors (setting [13]) and with P388/0 Tumors (setting [14]) were 85%, 129% and 145%, respectively. In addition, the results for the “MST (mean survival time)” value in the data set on P388/0 Tumors (setting [12]), in the data set on P388/0 Tumors (setting [13]) and in the data set with P388/0 Tumors (setting [14]) were 13.75, 17.0 and 18.19, respectively.
As for 8-demethylardeemin, the IC50 in data set [1] (listed as 8-Desmethylardeemin) is 2.26 ± 0.06 µM; in data set [3] (listed as 8-Desmethylardeemin) it was 2.23 ± 0.16 µM; in [3] (listed as 8-desmethylardeemin), 1.2 to 2.3 µM; in data set [4], 2260 nM.
In turn, `CO[C@H]1C[C@@H]2CC[C@@H](C)[C@@](O)(O2)C(=O)C(=O)N2CCCC[C@H]2C(=O)O[C@H]([C@H](C)C[C@@H]2CC[C@@H](O)[C@H](OC)C2)CC(=O)[C@H](C)/C=C(\C)[C@@H](O)[C@@H](OC)C(=O)[C@H](C)C[C@H](C)/C=C/C=C/C=C/1C` [Rapamycine, reference compound] registered an IC50 in [4] (Homo sapiens, Lymphocyte) of 610 nM.
5-N-Ac-F3-Ardeemin: the figures for the IC50 in data set [1] and in data set [3] were 9.97 ± 1.49 µM and 4.56 µM, respectively.
For `S=c1nc[nH]c2nc[nH]c12` [6-MP], the IC50 is 44 ± 17 nM in [7] and 136 ± 19 nM in data set [8].
In the case of `C=CC(C)(C)[C@@]12C[C@H]3c4nc5ccccc5c(=O)n4CC(=O)N3[C@@H]1N(C(C)=O)c1ccccc12` [5-N-acetyl-8-demethylardeemin, 5-N-acetyl-8-desmethylardeemin], the IC50 in data set [1] (listed as 5-N-Ac-8-desmethylardeemin) was determined as 1.2 ± 0.02 µM; in data set [3], 1.13 ± 0.13 µM; in data set [4], 980 nM. For the same molecule, the “resistance of organ transplant to graft rejection vs control mice” value in [2] is “more resistant to graft rejection”. In addition, the toxicity to mice entry was “very nontoxic” in the data set on B6D2F1 mice (FIG. 2, i.p., QD) and “non-toxic” in the data set with B6D2F1 mice (sequential 100 mg/kg i.p. QDx6, 150 mg/kg QDx8, 200 mg/kg QDx3, 300 mg/kg QDx3). Moreover, the “average body weight decreases” value in the data set on B6D2F1 mice (up to 250 mg/kg, Qdx3) was “less than 0.5 g”.
`Cc1c(-c2ccc(-c3ccccc3F)cc2)nc2ccc(F)cc2c1C(=O)O` [Brequinard]: the IC50 is 11200 nM in data set [4], 11200 ± 4000 nM in data set [7] and 56600 ± 22700 nM in [8].
As to `C[C@]12CCC(=O)C=C1CC[C@@H]1[C@@H]2[C@@H](O)C[C@@]2(C)[C@H]1CC[C@]2(O)C(=O)CO` [Hydrocortisone], in data set [5] (1% Cream, Skin), the “Average Pedis Area, Hours: 12” value is on record as 9.0*** mm^2 and the “Toxicity Death” value is given as 0/5. Besides, in data set [6] (1% Cream, Skin), the “Average Pedis Area, Hours: 0” value is given as 6.9 mm^2; the “Average Pedis Area, Hours: 24” value was 8.9*** mm^2; the “Average Pedis Area, Hours: 48” value is 7.8*** mm^2; the “Average Pedis Area, Hours: 60” value is given as 7.9*** mm^2.
With `C=CC(C)(C)[C@@]12Nc3ccccc3[C@]1(O)C[C@H]1C(=O)N3[C@@H](C[C@]4(O)c5ccccc5N[C@]34C(C)(C)C=C)C(=O)N12` [Gypsetin], the IC50 in data set [1] turned out to be 5.48 ± 1.24 µM; in data set [3] it was 12 ± 0.51 µM.
Regarding `COc1c(C)c2c(c(O)c1C/C=C(\C)CCC(=O)O)C(=O)OC2` [MPA], the IC50 was 95 ± 27 nM in [7] and 416 ± 210 nM in data set [8].
In the case of `C[C@@H]1C[C@H]2[C@@H]3CCC4=CC(=O)C=C[C@]4(C)[C@@]3(F)[C@@H](O)C[C@]2(C)[C@@]1(O)C(=O)CO` [Dexamethasone, reference compound], the half-inhibitory concentration (IC50) in data set [4] (Homo sapiens, Lymphocyte) was determined as 28200 nM.

(Values after US6355639B1, “Reverse prenyl compounds as immunosuppressants” (Sloan-Kettering Institute for Cancer Research, priority 1997, dated 2002).)
